Experimental data as given in PMC12322948 (The Journal of Organic Chemistry, 2025).
Read-outs that look alike come from different tables or passages of the source.

Target: T1, ACE2 (Homo sapiens, UniProt Q9BYF1)
T1 construct: purchased Abcam/BioVision ab273373
Test: ACE2 inhibition assay (Abcam ACE2 Inhibitor Screening Kit, fluorogenic MCA peptide substrate)
Type: biochemical
Conditions: for pIC50 exp-MLN – pIC50 exp: difference between experimental pIC50 of MLN-4760 and of the compound
Protocol: Having validated our radiosynthetic approach to (S,S)-[^18F]1 and with various fluorinated MLN-4760 analogues in hand, we next looked to evaluate the inhibitory activity of the analogues using a commercially available ACE2 inhibition assay kit (Table ) (Figure ). […] Consequently, the pIC50 values of the tested compounds were evaluated relative to our experimentally measured value for MLN-4760 in order to identify lead candidates for radiolabeling. […] The difference between the in vitro pIC^exp 50 for MLN-4760 and the pIC^exp 50 values of (S,S)-1–(S,S)-4 aligned with the difference in the in silico predicted pIC50 (pIC^pr 50) of MLN-4760 and pIC^pr 50 values of (S,S)-1–(S,S)-4. Specifically, these pIC50 differences for all 3,5-disubstituted benzyl analogues (S,S)-2, (S,S)-3, and (S,S)-4 were smaller than for the para-substituted benzyl analogue (S,S)-1, providing support for the pIC^pr 50 values (Table ). Consequently, compounds (S,S)-2, (S,S)-3 and (S,S)-4, with pIC50 values in the same range as MLN-4760, emerge as priority targets for future ACE2 PET radioligand development.
The assay for the inhibition of ACE2 was conducted using a commercially available ACE2 Inhibitor Screening Kit, purchased from Abcam (ACE2 Inhibitor Screening Kit, ab273373; Abcam/BioVision), in 96-well microplates (half area, black, flat bottomed, Greiner Bio-One International) at ambient temperature (set to 23.5 °C), total volume 100 µL. The assay employs a synthetic MCA-based peptide substrate that, upon cleavage by active ACE2, releases a fluorophore measurable by a fluorescence microplate reader (Ex/Em = 320/420 nm). Compounds to be tested were serially diluted with dilution buffer from a stock solution (5 mg/mL) in dimethyl sulfoxide (DMSO) to different concentrations.
Diluted ACE2 enzyme solution was prepared by diluting ACE2 enzyme (20 µL, provided in the kit) with dilution buffer (198 µL, provided in the kit ) and was aliquoted and stored at -20 °C.
Diluted ACE2 enzyme solution (2 µL) was added to assay buffer (48 µL ) to make ACE2 enzyme working solution. Inhibitor solution was prepared by adding the cont rol inhibitors (5 µL, 0.5 mM) to dilution buffer (50 µL) and was aliquoted and stored at -20 °C. The ACE2 substrate was aliquoted and stored at -20 °C. ACE2 substrate solution was prepared by diluting substrate (2 µL) […]
Five controls were prepared: enzyme control (positive control, inhibition free reaction), inhibitor control (negative control to test inhibition), background control (to remove fluorescence from the background), test compound control (to test whether the test compounds react with the substrate) and vehicle control (to test the effect of solvent DMSO on ACE2 enzyme activity).
For enzyme control, inhibitor control and vehicle control, and test compounds, ACE2 enzyme working solution (50 µL) was added. For background control and test compound control, assay buffer (50 µL) was added. Then, assay buffer (10 µL) was added to enzyme control and background control. DMSO solution in assay buffer (10 µL) was added to vehicle control. Inhibitor solution (10 µL) was added to inhibitor control. Test compound solution (10 µL) was added to the test compound control. For the test compound, compound solution (10 µL) with the different concentrations were added. An example of preparation can be found on Table S3.1. The mixture […]
and substrate were incubated separately at room temperature for 15 minutes before substrate (40 µL) was added to each test and mixed evenly to start the reaction. Fluorescence was monitored over 61-minutes (excitation = 320 nm, emission = 420 nm) using a Tecan microplate reader (Infinite® 200 PRO NanoQuant Microplate Reader). Fluorescence spectra were measured using the fluorescence intensity mode (excitation = 320 nm).
Table S4.1. Preparation of control and test compounds
Test Component 1 Component 2 Component 3
Vehicle control 50 µL enzyme1 10 µL DMSO (0.1 mM) 40 µL substrate2
Background control 50 µL assay buffer 10 µL assay buffer 40 µL substrate […]

[1] = Abcam ACE2 inhibitor screening kit, read-out: pIC50 exp (experimental pIC50) (converted)

T1 sequence (Q9BYF1 18-805): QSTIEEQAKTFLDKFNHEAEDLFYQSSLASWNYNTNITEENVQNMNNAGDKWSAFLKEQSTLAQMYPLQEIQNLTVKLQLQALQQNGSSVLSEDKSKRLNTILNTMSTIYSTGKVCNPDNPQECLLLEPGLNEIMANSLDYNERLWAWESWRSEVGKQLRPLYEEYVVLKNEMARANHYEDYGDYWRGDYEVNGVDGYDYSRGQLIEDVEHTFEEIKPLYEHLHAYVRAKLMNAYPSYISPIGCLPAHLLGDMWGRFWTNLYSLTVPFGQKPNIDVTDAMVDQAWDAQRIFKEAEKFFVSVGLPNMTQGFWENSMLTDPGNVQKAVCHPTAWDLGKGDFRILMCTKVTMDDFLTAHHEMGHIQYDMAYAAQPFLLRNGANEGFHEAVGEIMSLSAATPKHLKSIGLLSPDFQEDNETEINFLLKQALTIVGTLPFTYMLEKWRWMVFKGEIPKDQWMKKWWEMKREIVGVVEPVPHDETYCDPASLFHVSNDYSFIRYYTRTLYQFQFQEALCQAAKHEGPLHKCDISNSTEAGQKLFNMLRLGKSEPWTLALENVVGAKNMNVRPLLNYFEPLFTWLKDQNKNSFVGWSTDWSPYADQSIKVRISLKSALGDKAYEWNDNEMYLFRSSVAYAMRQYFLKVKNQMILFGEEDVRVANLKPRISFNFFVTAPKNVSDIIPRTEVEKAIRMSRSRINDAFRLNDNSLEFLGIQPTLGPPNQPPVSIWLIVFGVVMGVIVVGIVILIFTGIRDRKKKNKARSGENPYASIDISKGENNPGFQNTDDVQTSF

CC(C)C[C@@H](N[C@@H](Cc1cncn1Cc1ccc(F)cc1)C(=O)O)C(=O)O [(S,R)-1]
IC50 [1]: 40700 nM | pIC50 exp-MLN – pIC50 exp: 3.15

CC(C)C[C@H](N[C@@H](Cc1cncn1Cc1ccc(F)cc1)C(=O)O)C(=O)O [(S,S)-1]
IC50 [1]: 204 nM | pIC50 exp-MLN – pIC50 exp: 0.85

Cc1cc(F)cc(Cn2cncc2C[C@H](N[C@@H](CC(C)C)C(=O)O)C(=O)O)c1 [(S,S)-2]
IC50: 66.1 nM | pIC50 exp-MLN – pIC50 exp: 0.36

CC(C)C[C@H](N[C@@H](Cc1cncn1Cc1cc(F)cc(Cl)c1)C(=O)O)C(=O)O [(S,S)-3]
IC50: 24.5 nM | pIC50 exp-MLN – pIC50 exp: –0.07

COc1cc(Cn2cncc2C[C@H](N[C@@H](CC(C)C)C(=O)O)C(=O)O)cc(OCCF)c1 [(S,S)-4]
IC50: 53.7 nM | pIC50 exp-MLN – pIC50 exp: 0.27

CC(C)C[C@H](N[C@@H](Cc1cncn1Cc1cc(Cl)cc(Cl)c1)C(=O)O)C(=O)O [MLN-4760, (S,S)-2-(1-carboxy-2-(3-(3,5-dichlorobenzyl)-3H-imidazol-4-yl)-ethylamino)-4-methylpentanoic acid, reference compound]
IC50: 28.8 nM | pIC50 exp-MLN – pIC50 exp: 0.00
